# Biological target: T1, human recombinant GPR65 (Homo sapiens, UniProt Q8IYL9)
# T1 construct: host or cells: 1321N1 human astrocytoma cells (1321N1-hrGPR65)
# Experiment: Human GPR65 cAMP HTRF antagonist assay
# Format: cell-based
# Conditions: not given
# Excerpt: In one preferred embodiment, the compound prevents the increase in cytoplasmic cAMP levels expected following GPR65 activation at acidic pH. This prevention of cAMP accumulation in turn prevents downstream signalling through ICER, as described above. The “Human GPR65 cyclic adenosine monophosphate (cAMP) Homogeneous Time Resolved Fluorescence (HTRF) antagonist assay”, or simply “cAMP assay”, as described in the accompanying examples, can be used to measure the potency of GPR65 modulators, which is expressed as the concentration of compound required to reduce the increase in cAMP concentration upon GPR65 activation by 50% (i.e. an IC50).
# Human GPR65 Cyclic Adenosine Monophosphate (cAMP) Homogeneous Time Resolved Fluorescence (HTRF) Antagonist Assay Procedure
# IC50 data was obtained by the following procedure:
# 1321N1 human astrocytoma cells stably expressing human recombinant GPR65 (1321N1-hrGPR65 cells, EuroscreenFast) were cultured according to the vendor's instructions.
# Compounds were tested for their ability to antagonise GPR65, through measuring the concentration of cytoplasmic cAMP following treatment of the cells at a pH of 7.2 to activate GPR65 signalling and addition of the compound to be tested. The extent to which the expected rise in cAMP concentration upon GPR65 activation was suppressed by the added compound is indicative of its potency. The assay was carried out according to EuroscreenFast assay methodology as follows.
# On the day of the assay, test compounds were added to 384-well, low volume, white microtiter plates by acoustic dispensing. KRH buffer (5 mM KCl, 1.25 mM MgSO4, 124 mM NaCl, 25 mM HEPES, 13.3 mM Glucose, 1.25 mM KH2PO4 and 1.45 mM CaCl2) was adjusted to pH 6.5, pH 7.6 and pH 8.4 by adding NaOH. 1321N1-hGPR65 cells were rapidly thawed and diluted in KRH, pH 7.6 prior to centrifugation at 300×g for 5 min and resuspension in assay buffer (KRH, pH 7.6, supplemented with 1 mM 3-isobutyl-1-methylxanthine (IBMX) and 200 μM ethylenediaminetetraacetic acid (EDTA)). Cells were added to assay plates at a density of 2,000 cells per well in a volume of 5 μl. Assay plates were briefly centrifuged at 100×g and then incubated at room temperature for 30 min. Cells were stimulated by the addition of 5 μL KRH, pH 6.5, to achieve an assay pH of 7.2, while control wells received 5 μl KRH, pH 8.4 to achieve an assay pH of 7.9. Assay plates were briefly centrifuged at 100×g and then incubated at room temperature for 30 min.
# Accumulation of cAMP was detected by cAMP HTRF kit (Cisbio). d2-labeled cAMP and cryptate-labeled anti-cAMP antibody in Lysis and Detection Buffer (Cisbio) were added to assay plates, and the plates were incubated at room temperature for 1 h. HTRF measurements were performed using a Pherastar FSX instrument. Acceptor and donor emission signals were measured at 665 nm and 620 nm, respectively, and HTRF ratios were calculated as signal665 nm/signal620 nm×104. Data were normalised to high and low control values and fitted with 4-parameter logistic regression to determine hGPR65 IC50 values for the test compounds, which are shown in Table 1.
# T1 sequence (Q8IYL9 whole entry): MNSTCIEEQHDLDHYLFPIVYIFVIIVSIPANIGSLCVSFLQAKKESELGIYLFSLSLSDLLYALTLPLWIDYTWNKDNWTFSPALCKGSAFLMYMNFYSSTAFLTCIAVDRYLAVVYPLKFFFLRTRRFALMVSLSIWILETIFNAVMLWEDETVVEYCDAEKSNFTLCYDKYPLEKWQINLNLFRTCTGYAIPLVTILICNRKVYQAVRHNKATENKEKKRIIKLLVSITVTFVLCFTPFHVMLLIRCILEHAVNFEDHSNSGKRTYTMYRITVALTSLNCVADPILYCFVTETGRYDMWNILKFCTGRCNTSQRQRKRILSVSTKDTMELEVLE
row,Compound,IC50 [µM]
1,"O=C(Nc1ccc(C(F)(F)F)c(Cl)c1)N1C2CCC1c1cnc(F)nc1C2 (racemic) [Compound 45, (±)-N-(3-Chloro-4-(trifluoromethyl)phenyl)-2-fluoro-6,7,8,9-tetrahydro-5H-5,8-epiminocyclohepta[d]pyrimidine-10-carboxamide]",< 0.5
2,"O=C(Nc1ccc(Cl)c(Cl)c1)N1C2CCC1c1cnc(F)nc1C2 (racemic) [Compound 46, (±)-N-(3,4-Dichlorophenyl)-2-fluoro-6,7,8,9-tetrahydro-5H-5,8-epiminocyclohepta[d]pyrimidine-10-carboxamide]",< 0.5
3,"O=C(Nc1ccc(Cl)c(Cl)c1)N1C2CCC1c1cncnc1C2 (racemic) [Compound 48, (±)-N-(3,4-dichlorophenyl)-6,7,8,9-tetrahydro-5H-5,8-epiminocyclohepta[d]pyrimidine-10-carboxamide]",< 0.5
4,"O=C(Nc1ccc(Cl)c(Cl)c1)N1C2CCC1c1cc[n+]([O-])cc1C2 (racemic) [Compound 58, (±)-10-((3,4-Dichlorophenyl)carbamoyl)-6,7,8,9-tetrahydro-5H-5,8-epiminocyclohepta[c]pyridine 2-oxide]",< 0.5
5,"O=C(Nc1ccc(Cl)c(Cl)c1)N1C2CCC1c1ccc(Cl)cc1C2 (racemic) [Compound 60, (±)-2-Chloro-N-(3,4-dichlorophenyl)-6,7,8,9-tetrahydro-5H-5,8-epiminobenzo[7]annulene-10-carboxamide]",< 0.5
6,"O=C(Nc1ccc(Cl)c(Cl)c1)N1C2CCC1c1cnc(F)cc1C2 (racemic) [Compound 67, (±)-N-(3,4-Dichlorophenyl)-3-fluoro-6,7,8,9-tetrahydro-5H-6,9-epiminocyclohepta[c]pyridine-10-carboxamide]",0.5 to 5

# Same assay, conditions: 1321N1-hrGPR65 cells, assay pH 7.2, cAMP HTRF; read-out: hGPR65 IC50 (activity class)
row,Compound,IC50 [µM]
1,"O=C(Nc1ccc(C(F)(F)F)c(Cl)c1)N1C2CCC1c1c[nH]c(=O)nc1C2=NO (racemic) [Compound 47, (±)-N-(3-Chloro-4-(trifluoromethyl)phenyl)-9-(hydroxyimino)-2-oxo-3,5,6,7,8,9-hexahydro-2H-5,8-epiminocyclohepta[d]pyrimidine-10-carboxamide]",0.5 to 5
2,"O=C(Nc1ccc(Cl)cc1)N1C2CCC1c1cncnc1C2 (racemic) [Compound 49, (±)-N-(4-Chlorophenyl)-6,7,8,9-tetrahydro-5H-5,8-epiminocyclohepta[d]pyrimidine-10-carboxamide]",> 5
3,"O=C(Nc1cccc(Cl)c1)N1C2CCC1c1cncnc1C2 (racemic) [Compound 50, (±)-N-(3-Chlorophenyl)-6,7,8,9-tetrahydro-5H-5,8-epiminocyclohepta[d]pyrimidine-10-carboxamide]",> 5
4,"O=C(Nc1cc(Cl)ccc1F)N1C2CCC1c1cncnc1C2 (racemic) [Compound 51, (±)-N-(5-Chloro-2-fluorophenyl)-6,7,8,9-tetrahydro-5H-5,8-epiminocyclohepta[d]pyrimidine-10-carboxamide]",0.5 to 5
5,"O=C(Nc1ccc(C(F)(F)F)c(Cl)c1)N1C2CCC1c1ccccc1C2 (racemic) [Compound 54, (±)-N-(3-Chloro-4-(trifluoromethyl)phenyl)-6,7,8,9-tetrahydro-5H-5,8-epiminobenzo[7]annulene-10-carboxamide]",0.5 to 5
6,"O=C(Nc1ccc(Cl)c(C(F)(F)F)c1)N1C2CCC1c1ccccc1C2 (racemic) [Compound 55, (±)-N-(4-Chloro-3-(trifluoromethyl)phenyl)-6,7,8,9-tetrahydro-5H-5,8-epiminobenzo[7]annulene-10-carboxamide]",0.5 to 5
7,"COc1ccc2c(c1)CC1CCC2N1C(=O)Nc1ccc(Cl)c(Cl)c1 (racemic) [Compound 56, (±)-N-(3,4-Dichlorophenyl)-2-methoxy-6,7,8,9-tetrahydro-5H-5,8-epiminobenzo[7]annulene-10-carboxamide]",0.5 to 5
8,"O=C(Nc1ccc(Cl)c(Cl)c1)N1C2CCC1c1ccc(O)cc1C2 (racemic) [Compound 57, (±)-N-(3,4-Dichlorophenyl)-2-hydroxy-6,7,8,9-tetrahydro-5H-5,8-epiminobenzo[7]annulene-10-carboxamide]",0.5 to 5
9,"O=C(Nc1ccc(Cl)c(Cl)c1)N1C2CCC1c1c[n+]([O-])ccc1C2 (racemic) [Compound 59, (±)-10-((3,4-Dichlorophenyl)carbamoyl)-6,7,8,9-tetrahydro-5H-6,9-epiminocyclohepta[c]pyridine 2-oxide]",> 5
10,"Nc1nccc2c1C1CCC(C2)N1C(=O)Nc1ccc(Cl)c(Cl)c1 (racemic) [Compound 61, (±)-1-Amino-N-(3,4-dichlorophenyl)-6,7,8,9-tetrahydro-5H-6,9-epiminocyclohepta[c]pyridine-10-carboxamide]",0.5 to 5
11,"Nc1cc2c(cn1)C1CCC(C2)N1C(=O)Nc1ccc(Cl)c(Cl)c1 (racemic) [Compound 62, (±)-3-amino-N-(3,4-dichlorophenyl)-6,7,8,9-tetrahydro-5H-6,9-epiminocyclohepta[c]pyridine-10-carboxamide]",> 5
12,"Nc1nccc2c1CC1CCC2N1C(=O)Nc1ccc(Cl)c(Cl)c1 (racemic) [Compound 63, (±)-1-amino-N-(3,4-dichlorophenyl)-6,7,8,9-tetrahydro-5H-5,8-epiminocyclohepta[c]pyridine-10-carboxamide]",> 5
13,"Nc1cc2c(cn1)CC1CCC2N1C(=O)Nc1ccc(Cl)c(Cl)c1 (racemic) [Compound 64, (±)-3-Amino-N-(3,4-dichlorophenyl)-6,7,8,9-tetrahydro-5H-5,8-epiminocyclohepta[c]pyridine-10-carboxamide]",0.5 to 5
14,"CC(C)(C)Nc1nccc2c1CC1CCC2N1C(=O)Nc1ccc(Cl)c(Cl)c1 (racemic) [Compound 65, (±)-1-(tert-Butylamino)-N-(3,4-dichlorophenyl)-6,7,8,9-tetrahydro-5H-5,8-epiminocyclohepta[c]pyridine-10-carboxamide]",0.5 to 5
15,"CC(C)(C)Nc1cc2c(cn1)CC1CCC2N1C(=O)Nc1ccc(Cl)c(Cl)c1 (racemic) [Compound 66, (±)-3-(tert-Butylamino)-N-(3,4-dichlorophenyl)-6,7,8,9-tetrahydro-5H-5,8-epiminocyclohepta[c]pyridine-10-carboxamide]",0.5 to 5
16,"O=C(Nc1ccc(Cl)c(Cl)c1)N1C2CCC1c1c(ccnc1F)C2 (racemic) [Compound 68, (±)-N-(3,4-Dichlorophenyl)-1-fluoro-6,7,8,9-tetrahydro-5H-6,9-epiminocyclohepta[c]pyridine-10-carboxamide]",0.5 to 5
17,"O=C(Nc1ccc(Cl)c(Cl)c1)N1C2CCC1c1cc(F)ncc1C2 (racemic) [Compound 69, (±)-N-(3,4-Dichlorophenyl)-3-fluoro-6,7,8,9-tetrahydro-5H-5,8-epiminocyclohepta[c]pyridine-10-carboxamide]",0.5 to 5
18,"O=C(Nc1ccc(C(F)(F)F)c(Cl)c1)N1C2CCC1c1ccc(Cl)cc1C2 (racemic) [Compound 71, (±)-2-Chloro-N-(3-chloro-4-(trifluoromethyl)phenyl)-6,7,8,9-tetrahydro-5H-5,8-epiminobenzo[7]annulene-10-carboxamide]",0.5 to 5
19,"N#Cc1ccc2c(c1)CC1CCC2N1C(=O)Nc1ccc(Cl)c(Cl)c1 (racemic) [Compound 72, (±)-2-Cyano-N-(3,4-dichlorophenyl)-6,7,8,9-tetrahydro-5H-5,8-epiminobenzo[7]annulene-10-carboxamide]",0.5 to 5

# From patent US20230373989A1, “N-PHENYLAMINOCARBONYL PYRIDINO-, PYRIMIDINO AND BENZO-TROPANES AS MODULATORS OF GPR65” (PATHIOS THERAPEUTICS LIMITED, priority 2020, published 2023)
